Where “and” joins values, the source holds several entries; their conditions need not be identical. Equal entries are not always repeated. Where two headings read alike, the source gives them in different places. Marks after values point to notes of the source that are not given here.
Assays:
equine serum BChE = equine serum BChE (Equus caballus, UniProt P81908); experiment: biochemical; type: biochemical
Experimental: (§1) Human erythrocyte AChE and equine serum BChE were purchased from Milamed (Perm, Russia). Porcine liver CES, substrates, and reference compounds were from Sigma-Aldrich (St. Louis, MO, USA). The activity of enzymes was measured spectrophotometrically, as described in detail in [72] using ATCh iodide, BTCh iodide, and 4-NPA as substrates for AChE, BChE, and CES, respectively. Experimental conditions: K,Na—phosphate buffer (100 mM), 25 °C, pH 7.5 for AChE and BChE and pH 8.0 for CES assay. Measurements were carried out on a FLUOStar Optima microplate reader (BMG Labtech, Ortenberg, Germany).
(§2) Test compounds were dissolved in DMSO; the final concentration of solvent in the incubation mixture was 2% (v/v).

Human erythrocyte AChE = Human erythrocyte AChE (Homo sapiens, UniProt P22303); experiment: biochemical; type: biochemical
Chain of Human erythrocyte AChE (P22303 other isoform, or with tags, fused parts or gaps): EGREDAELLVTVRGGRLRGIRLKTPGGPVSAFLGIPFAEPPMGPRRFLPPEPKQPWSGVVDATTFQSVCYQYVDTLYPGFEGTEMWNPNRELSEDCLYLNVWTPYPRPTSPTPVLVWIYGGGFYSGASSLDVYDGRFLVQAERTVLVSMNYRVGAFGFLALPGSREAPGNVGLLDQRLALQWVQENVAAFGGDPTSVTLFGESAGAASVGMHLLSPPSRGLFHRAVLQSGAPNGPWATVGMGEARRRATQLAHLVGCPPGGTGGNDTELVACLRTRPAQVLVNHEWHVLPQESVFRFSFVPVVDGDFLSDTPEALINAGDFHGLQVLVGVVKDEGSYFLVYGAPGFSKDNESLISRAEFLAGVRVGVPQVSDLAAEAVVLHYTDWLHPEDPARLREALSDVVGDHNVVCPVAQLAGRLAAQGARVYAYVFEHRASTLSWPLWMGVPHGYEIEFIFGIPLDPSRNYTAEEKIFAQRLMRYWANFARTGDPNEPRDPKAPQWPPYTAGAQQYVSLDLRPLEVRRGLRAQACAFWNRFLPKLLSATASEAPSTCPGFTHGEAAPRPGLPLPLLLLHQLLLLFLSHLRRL
Experimental: as §1, §2

Porcine liver CES = experiment: CES inhibition, spectrophotometric, 4-NPA substrate; type: biochemical
Experimental: as §1
Test compounds were dissolved in DMSO; the final concentration of solvent in the incubation mixture was 2% (v/v). […]

[1] = biological target: peripheral anionic site of Electrophorus electricus AChE (EeAChE) (Electrophorus electricus, UniProt O42275); type: binding;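 also: compounds tested at 20 µM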
Chain of peripheral anionic site of Electrophorus electricus AChE (EeAChE) (O42275 24-633): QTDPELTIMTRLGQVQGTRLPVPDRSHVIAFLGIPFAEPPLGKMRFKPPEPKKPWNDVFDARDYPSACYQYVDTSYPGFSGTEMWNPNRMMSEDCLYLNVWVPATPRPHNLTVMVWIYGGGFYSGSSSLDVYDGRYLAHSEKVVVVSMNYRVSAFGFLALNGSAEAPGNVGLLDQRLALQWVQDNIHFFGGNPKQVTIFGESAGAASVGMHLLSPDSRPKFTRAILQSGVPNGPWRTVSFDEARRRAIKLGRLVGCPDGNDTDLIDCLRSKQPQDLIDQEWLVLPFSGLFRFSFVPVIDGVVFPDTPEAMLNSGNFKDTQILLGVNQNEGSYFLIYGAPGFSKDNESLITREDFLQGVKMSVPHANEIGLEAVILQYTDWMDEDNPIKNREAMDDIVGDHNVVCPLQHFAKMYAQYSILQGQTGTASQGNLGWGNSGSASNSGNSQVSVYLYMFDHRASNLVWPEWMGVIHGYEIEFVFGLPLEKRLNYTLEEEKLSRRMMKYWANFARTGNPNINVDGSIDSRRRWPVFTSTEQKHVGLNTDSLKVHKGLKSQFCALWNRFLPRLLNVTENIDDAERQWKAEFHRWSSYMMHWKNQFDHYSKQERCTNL

[2] = ABTS radical cation scavenging assay; conditions: for ABTS•+-Scavenging Activity TEAC: Trolox equivalents; for time to reach the activity level of Trolox in ABTS radical scavenging: compound at 20 μM (IC50 of Trolox)
[3] = Ferric-reducing antioxidant power (FRAP) assay; conditions: Trolox equivalents
Aβ42 = Aβ42 (Homo sapiens, UniProt P05067); experiment: Inhibition of Aβ42 self-aggregation, thioflavin T fluorescence; type: biochemical; conditions: for inhibition at 100 µM: read-out: Inhibition of Aβ42 Self-Aggregation
Chain of Aβ42 (P05067 672-713): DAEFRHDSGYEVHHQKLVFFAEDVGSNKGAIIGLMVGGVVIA

[4] = system: free radicals in mouse brain homogenate (TBHP-initiated); type: biochemical; conditions: read-out: Radical Scavenging Capacity, Luminol Chemiluminescence Assay IC50
[5] = system: spontaneous lipid peroxidation in mouse brain homogenate; type: biochemical

Chain of equine serum BChE (P81908 whole entry): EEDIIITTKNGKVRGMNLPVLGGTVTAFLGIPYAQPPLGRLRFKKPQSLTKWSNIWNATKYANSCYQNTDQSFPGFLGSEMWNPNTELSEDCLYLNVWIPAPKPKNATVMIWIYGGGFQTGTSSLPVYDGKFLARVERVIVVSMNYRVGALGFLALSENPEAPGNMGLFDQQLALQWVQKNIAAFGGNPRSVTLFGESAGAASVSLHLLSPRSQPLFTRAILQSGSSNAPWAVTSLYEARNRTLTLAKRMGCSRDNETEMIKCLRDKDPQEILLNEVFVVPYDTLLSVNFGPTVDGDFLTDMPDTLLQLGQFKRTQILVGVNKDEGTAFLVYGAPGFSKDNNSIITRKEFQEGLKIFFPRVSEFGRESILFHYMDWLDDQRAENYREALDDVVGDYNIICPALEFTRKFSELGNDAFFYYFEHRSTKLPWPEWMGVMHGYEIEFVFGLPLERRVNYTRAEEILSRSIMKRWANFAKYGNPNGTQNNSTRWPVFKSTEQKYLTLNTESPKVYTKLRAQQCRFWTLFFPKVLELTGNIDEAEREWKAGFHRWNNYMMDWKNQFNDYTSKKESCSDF

Molecule | IC50 (equine serum BChE) [µM] | IC50 (Human erythrocyte AChE) [µM] | CES % inhibition at 20 μM (Porcine liver CES) | Propidium Displacement [1] | IC50 [2] | ABTS•+-Scavenging Activity TEAC [2] | Ferric-Reducing Antioxidant Power TE [3] | inhibition at 100 µM (Aβ42; Aβ42 50 µM, compound 100 µM) [%] | time to reach the activity level of Trolox in ABTS radical scavenging [2] | AChE activity relative to tacrine (times more active) (Human erythrocyte AChE; vs tacrine) | IC50 [4] [µM] | inhibition at 20 µM (equine serum BChE; read-out: BChE % inhibition at 20 μM) [%] | inhibition at 20 µM (Human erythrocyte AChE; read-out: AChE % inhibition at 20 μM) [%] | IC50 ([5]; read-out: Inhibition of Spontaneous Lipid Peroxidation in Mouse Brain Homogenate, TBARS Assay IC50) [µM] | IC50 ([5]; read-out: Inhibition of spontaneous lipid peroxidation in mice brain homogenate (TBARS Assay) IC50) [µM] | Inhibition of Aβ42 Self-Aggregation (Aβ42; Aβ42 50 µM, compound 100 µM) | inhibition at 100 µM (Aβ42) [%]
CC(C)(C)c1cc(C=NCCCCNc2c3c(nc4ccccc24)CCC3)cc(C(C)(C)C)c1O [13b, 2,6-Di-tert-butyl-4-{[4-(2,3-dihydro-1H-cyclopenta[b]quinolin-9-ylamino)-butylimino]-methyl}-phenol] | 0.351 ± 0.001 | 1.3 ± 0.07 | 32.7 ± 1.9% | 20.0 ± 1.6 ***^,§ % | 25.4 ± 1.6 µM | 0.78 ± 0.04 | 0.60 ± 0.02 |  |  |  |  |  |  |  |  |  | 
CC(C)(C)c1cc(C=NCCCCCCNc2c3c(nc4ccccc24)CCC3)cc(C(C)(C)C)c1O [13c, 2,6-Di-tert-butyl-4-{[6-(2,3-dihydro-1H-cyclopenta[b]quinolin-9-ylamino)-hexylimino]-methyl}-phenol] | 0.172 ± 0.017 | 0.21 ± 0.01 | 31.3 ± 2.1% | 16.5 ± 1.3% | 19.4 ± 0.9 µM | 0.98 ± 0.04 | 0.59 ± 0.01 |  |  |  |  |  |  |  |  |  | 
CC(C)(C)c1cc(C=NCCCCCCCCNc2c3c(nc4ccccc24)CCC3)cc(C(C)(C)C)c1O [13d, 2,6-Di-tert-butyl-4-{[8-(2,3-dihydro-1H-cyclopenta[b]quinolin-9-ylamino)-octylimino]-methyl}-phenol] | 0.0417 ± 0.0003 | 0.107 ± 0.009 | 26.3 ± 1.7% | 15.1 ± 0.9% | 22.7 ± 1.2 µM | 0.85 ± 0.03 | 0.71 ± 0.03 | 49.4 ± 4.3 |  |  |  |  |  |  |  |  | 
CC(C)(C)c1cc(C=NCCCCNc2c3c(nc4ccccc24)CCCC3)cc(C(C)(C)C)c1O [14b, 2,6-Di-tert-butyl-4-{[4-(1,2,3,4-tetrahydro-acridin-9-ylamino)-butylimino]-methyl}-phenol] | 0.385 ± 0.031 | 0.424 ± 0.022 | 26.6 ± 2.2% | 17.6 ± 1.4 *^,§ % | 19.7 ± 0.9 µM | 1.0 and 1.00 ± 0.05 |  |  |  |  |  |  |  |  |  |  | 
CC(C)(C)c1cc(C=NCCCCCCNc2c3c(nc4ccccc24)CCCC3)cc(C(C)(C)C)c1O [14c, 2,6-Di-tert-butyl-4-{[6-(1,2,3,4-tetrahydro-acridin-9-ylamino)-hexylimino]-methyl}-phenol] | 0.055 ± 0.005 | 0.0712 ± 0.0012 | 25.1 ± 1.9% | 19.7 ± 1.5 **^,§ % | 18.6 ± 0.9 µM | 1.10 ± 0.05 | 0.71 ± 0.02 | 62.4 ± 4.9 |  |  |  |  |  |  |  |  | 
CC(C)(C)c1cc(C=NCCCCNc2c3c(nc4ccccc24)CCCCC3)cc(C(C)(C)C)c1O [15b, 2,6-Di-tert-butyl-4-{[4-(7,8,9,10-tetrahydro-6H-cyclohepta[b]quinolin-11-ylamino)-butylimino]-methyl}-phenol] | 0.131 ± 0.004 | 0.524 ± 0.02 | 26.3 ± 0.4% | 18.4 ± 1.4 **^,§ % | 22.5 ± 1.4 µM | 0.89 ± 0.04 | 0.46 ± 0.01 |  |  |  |  |  |  |  |  |  | 
CC(C)(C)c1cc(CNCCCCNc2c3c(nc4ccccc24)CCC3)cc(C(C)(C)C)c1O [16b, 2,6-Di-tert-butyl-4-{[4-(2,3-dihydro-1H-cyclopenta[b]quinolin-9-ylamino)-butylamino]-methyl}-phenol] | 0.177 ± 0.017 | 0.912 ± 0.016 | 17.2 ± 3.3% | 17.5 ± 1.5 *^,§ % | 23.6 ± 1.3 µM | 0.90 ± 0.04 | 0.44 ± 0.02 |  |  |  |  |  |  |  |  |  | 
CC(C)(C)c1cc(CNCCCCCCNc2c3c(nc4ccccc24)CCC3)cc(C(C)(C)C)c1O [16c, 2,6-Di-tert-butyl-4-{[6-(2,3-dihydro-1H-cyclopenta[b]quinolin-9-ylamino)-hexylamino]-methyl}-phenol] | 0.0488 ± 0.0005 | 0.205 ± 0.012 | 18.7 ± 0.7% | 15.8 ± 1.4% | 13.4 ± 0.7 µM |  | 0.51 ± 0.02 |  | less than 1 min |  |  |  |  |  |  |  | 
CC(C)(C)c1cc(CNCCCCCCCCNc2c3c(nc4ccccc24)CCC3)cc(C(C)(C)C)c1O [16d, 2,6-Di-tert-butyl-4-{[8-(2,3-dihydro-1H-cyclopenta[b]quinolin-9-ylamino)-octylamino]-methyl}-phenol] | 0.017 ± 0.0016 | 0.094 ± 0.006 | 17.2 ± 0.2% | 13.9 ± 1.1% | 21.3 ± 1.2 µM | 1.00 ± 0.03 | 0.61 ± 0.01 | 54.6 ± 3.9 |  |  |  |  |  |  |  |  | 
CC(C)(C)c1cc(CNCCNc2c3c(nc4ccccc24)CCCC3)cc(C(C)(C)C)c1O [17a, 2,6-Di-tert-butyl-4-{[2-(1,2,3,4-tetrahydro-acridin-9-ylamino)-ethylamino]-methyl}-phenol] | 0.464 ± 0.041 | 2.88 ± 0.19 | 18.4 ± 1.1% | 13.4 ± 1.1% | 16.7 ± 0.8 µM | 1.20 ± 0.05 | 0.52 ± 0.02 |  |  |  |  |  |  |  |  |  | 
CC(C)(C)c1cc(CNCCCCNc2c3c(nc4ccccc24)CCCC3)cc(C(C)(C)C)c1O [17b, 2,6-Di-tert-butyl-4-{[4-(1,2,3,4-tetrahydro-acridin-9-ylamino)-butylamino]-methyl}-phenol] | 0.111 ± 0.009 | 0.279 ± 0.022 | 15.8 ± 1.4% | 15.4 ± 1.3% | 14.3 ± 0.6 µM |  |  |  | less than 1 min |  |  |  |  |  |  |  | 
CC(C)(C)c1cc(CNCCCCCCNc2c3c(nc4ccccc24)CCCC3)cc(C(C)(C)C)c1O [17c, 2,6-Di-tert-butyl-4-{[6-(1,2,3,4-tetrahydro-acridin-9-ylamino)-hexylamino]-methyl}-phenol] | 0.0361 ± 0.023 | 0.0702 ± 0.0011 | 18.5 ± 1.6% | 16.1 ± 1.1% | 15.7 ± 0.6 µM | 1.32 ± 0.08 | 0.44 ± 0.02 | 64.1 ± 5.7 | less than 1 min |  |  |  |  |  |  |  | 
CC(C)(C)c1cc(CNCCCCCCCCNc2c3c(nc4ccccc24)CCCC3)cc(C(C)(C)C)c1O [17d, 2,6-Di-tert-butyl-4-{[8-(1,2,3,4-tetrahydro-acridin-9-ylamino)-octylamino]-methyl}-phenol] | 0.00756 ± 0.00042 | 0.0151 ± 0.002 | 23.6 ± 2.1% | 13.4 ± 1.2% | 15.2 ± 0.7 µM |  | 0.57 ± 0.01 | 71.4 ± 4.9 | less than 1 min | ~ 40 times | 11.3 ± 1.5 |  |  |  |  |  | 
CC(C)(C)c1cc(CNCCCCNc2c3c(nc4ccccc24)CCCCC3)cc(C(C)(C)C)c1O [18b, 2,6-Di-tert-butyl-4-{[4-(7,8,9,10-tetrahydro-6H-cyclohepta[b]quinolin-11-ylamino)-butylamino]-methyl}-phenol] | 0.0678 ± 0.0061 | 0.436 ± 0.016 | 21.4 ± 1.8% | 15.7 ± 1.2% | 14.6 ± 0.5 µM |  | 0.38 ± 0.01 |  | less than 1 min |  |  |  |  |  |  |  | 
Cc1cc(C(C)(C)C)c(O)c(C(C)(C)C)c1 [BHT, butylated hydroxytoluene, reference compound] |  |  | 5.6 ± 0.2% |  | 22.4 ± 1.4 µM | 0.98 ± 0.03 | 0.96 ± 0.02 |  |  |  | 70.4 ± 4.1 | 18.9 ± 1.7 | 6 ± 1.5 | 6.9 ± 0.3 | 7 | not detectable | 
O=c1c(O)c(-c2cc(O)c(O)c(O)c2)oc2cc(O)cc(O)c12 [Myricetin, reference compound] |  |  |  |  |  |  |  |  |  |  |  |  |  |  |  |  | 73.2 ± 5.8
Nc1c2c(nc3ccccc13)CCCC2 [Tacrine, reference compound] |  |  |  |  |  |  |  |  |  |  |  |  |  |  |  | minimal inhibition | 
Cc1c(C)c2c(c(C)c1O)CCC(C)(C(=O)O)O2 (stereo not shown) [Trolox, 6-hydroxy-2,5,7,8-tetramethylchroman-2-carboxylic acid, reference compound] |  |  |  |  | 20 µM and 20.1 µM | 1.0 | 1.0 |  |  |  |  |  |  |  |  |  | 
Propidium iodide [reference compound] |  |  |  |  |  |  |  |  |  |  |  |  |  |  |  | 89.3 ± 7.1 ^b % | 
bis-4-nitrophenyl phosphate [BNPP, reference compound] |  |  | 99.1 ± 0.9% ^b |  |  |  |  |  |  |  |  |  |  |  |  |  | 
